# In article PMC12833874 (Journal of Medicinal Chemistry, 2025):
# Read-outs that look alike come from different tables or passages of the source.
# How the values were obtained:
# NOPr [1] = target: T1, NOPr (Homo sapiens, UniProt P41146); experiment: TR-FRET kinetic binding, Lumi4-Tb-SNAP-NOPr-CHO membranes; conditions: for Kd: kinetically derived, 15 min, n = 3
# SNAP-NOPr = target: T2, SNAP-NOPr (Homo sapiens, UniProt P41146); experiment: Confocal imaging of fluorescent ligand binding, live FlpIn CHO cells stably expressing SNAP-NOPr; type: cell-based; conditions: 1 μM, 30 min at 37 °C, live cells
# T2 construct: expressed in transfected cells
# T2 sequence (P41146 whole entry): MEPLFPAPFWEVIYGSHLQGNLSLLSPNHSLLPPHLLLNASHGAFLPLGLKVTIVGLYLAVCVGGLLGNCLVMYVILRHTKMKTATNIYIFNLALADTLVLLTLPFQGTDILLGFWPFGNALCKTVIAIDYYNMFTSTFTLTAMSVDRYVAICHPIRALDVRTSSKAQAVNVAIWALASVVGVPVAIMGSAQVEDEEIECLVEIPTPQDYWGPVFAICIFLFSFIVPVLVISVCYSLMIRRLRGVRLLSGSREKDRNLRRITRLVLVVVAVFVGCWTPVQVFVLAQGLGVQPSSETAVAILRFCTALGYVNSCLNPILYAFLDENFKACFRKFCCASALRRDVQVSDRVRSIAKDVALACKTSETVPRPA
# Experimental: To first assess whether the library of fluorescent ligands (13a-h and 14h) can specifically label the NOPr, single time point confocal images of live FlpIn CHO cells stably expressing SNAP-NOPr were captured. Cells were incubated with fluorescent ligands 13a-h and 14h (1 μM) to assess the fluorescent ligand binding.
# 3 Single time point confocal images of live FlpIn CHO cells stably expressing SNAP-NOPr. Cells were labeled with SNAP-AF488 (cyan) to visualize SNAP-NOPr expression (a–d) and incubated for 30 min at 37 °C with fluorescent ligands 13e–h (1 μM) (magenta) to visualize fluorescent ligand binding (e-h).
# For all experiments, live cell single time point confocal images were captured using a Zeiss Cell Discoverer 7 LSM 900 high-content automated confocal microscope. Two images per well were captured using a 10× objective and the Cy5 channel (650 λex, 673 λem), the AF488 (495λex, 520 λem) channel, and the CFP (433λex, 475 λem) channel. All cells were imaged in an imaging buffer containing (2 mM sodium pyruvate, 145 mM NaCl, 10 mM D-glucose, 5 mM KCl, 1 mM MgSO4·7H2O, 10 mM HEPES, 1.3 mM CaCl2 dihydrate, and 1.5 mM NaHCO3).
# Stably expressing SNAP-NOPr FlpIn-CHO cells suspended in DMEM (D6421) (100 μL) were seeded (10,000 cells/well) into 96-well poly-D-lysine (PDL)-coated Greiner black polyester plates. Cells were incubated for 48 h at 37 °C and 5% CO2 prior to imaging.
# Before measurement, the media were removed, and cells were washed with 90 μL of imaging buffer. Cells were then incubated with SNAP-AF488 (New England Biolabs) (0.5 μg·mL^–1) in imaging buffer for 30 min at 37 °C. After incubation, the SNAP-AF488 solution was aspirated and cells were rinsed twice with imaging buffer (90 μL). […] Cells were incubated for 30 min at 37 °C and 5% CO2 before the images were captured.
# NOPr [2] = target: T1, NOPr; experiment: BRET G-protein activation (GPA) assay, Gαi2, agonist and antagonist mode, Flp-In-NOPr-CHO cells; type: cell-based
# NOPr [3] = target: T1, NOPr; experiment: TR-FRET equilibrium saturation binding, Lumi4Tb-SNAP-NOPr CHO membranes
# NOPr [4] = target: T1, NOPr; experiment: TR-FRET competition binding with tracers 13g and 13h, Lumi4-Tb SNAP-NOPr membranes; conditions: 140 mM Na+, 100 μM Gpp(NH)p, 2 h 37 °C
# DOPr = conditions: literature value, reference number not given; read-out: DOPr K i; cited from earlier work
# KOPr = conditions: literature value, reference number not given; read-out: KOPr K i; cited from earlier work
# MOPr = conditions: literature value, reference number not given; read-out: MOPr K i; cited from earlier work
# NOPr [5] = conditions: Table 4; literature values, reference number not given; read-out: literature K i; cited from earlier work
# NOPr [6] = test system: NOPr; parameters: method as in Spagnolo et al.,1; conditions: ref Spagnolo et al.,1, cited from earlier work
# CHOhNOPr = conditions: ref Spagnolo et al.,1; cited from earlier work
# CHOhMOPr = target: CHOhMOPr; parameters: method as in Spagnolo et al.,1; conditions: ref Spagnolo et al.,1; cited from earlier work
# CHOhDOPr = target: CHOhDOPr; parameters: method as in Spagnolo et al.,1; conditions: ref Spagnolo et al.,1; cited from earlier work
# CHOhKOPr = target: CHOhKOPr; parameters: method as in Spagnolo et al.,1; conditions: ref Spagnolo et al.,1; cited from earlier work
# NOPr [7] = target: T1, NOPr; experiment: TR-FRET competition binding with tracer 13h in presence and absence of Na+ and Gpp(NH)p
# [8] = IC50, antagonist mode, inhibition of EC80 concentration of N/OFQ, n = 4 in duplicate
# [9] = pIC50 ± SEM, antagonist mode, inhibition of EC80 concentration of N/OFQ, n = 4 in duplicate
# T1 sequence (P41146 whole entry): as above
molecule,measurement,setting,value
"CN1/C(=C/C=C/C=C/C2=[N+](CCCCCC(=O)NCCOc3cccc(CN4CCC[C@@H]4C(=O)NCCCN4CCC5(CC4)OCc4ccccc45)c3)c3ccc(S(=O)(=O)[O-])cc3C2(C)C)C(C)(C)c2cc(S(=O)(=O)[O-])ccc21.[K+] [13g, Potassium 1-(6-((2-(3-(((R)-2-((3-(3H-Spiro[isobenzofuran-1,4′-piperidin]-1′-yl)propyl)carbamoyl)pyrrolidin-1-yl)methyl)phenoxy)ethyl)amino)-6-oxohexyl)-3,3-dimethyl-2-((1E,3E)-5-((E)-1,3,3-trimethyl-5-sulfonatoindolin-2-ylidene)penta-1,3-dien-1-yl)-3H-indol-1-ium-5-sulfonate]",koff,"NOPr [1]; 0–50 nM, over 15 min",0.00167 s⁻¹
same,kon,"NOPr [1]; 0–50 nM, over 15 min",51700 M⁻¹ s⁻¹
same,Kd,NOPr [1]; read-out: kinetic KD (converted),35.7 nM
same,Kd,NOPr [1]; read-out: kinetic pKD (converted),35.5 nM
same,fluorescent ligand binding (confocal images),SNAP-NOPr,more pronounced binding
same,reduction in inhibitory potency from N-Boc congener to fluorescent ligand,"NOPr [2]; 11g to 13g, 11h to 13h and 14h",≥ 5 fold
same,IC50,NOPr [2]; [8],110 nM
same,IC50,"NOPr [2]; NOP IC50 (nM), supplementary csv, GPA assay antagonist mode",109 nM
same,IC50,"NOPr [2]; NOP pIC50 ± SEM, supplementary csv, GPA assay antagonist mode",110 nM
same,IC50,NOPr [2]; [9],100 nM
same,binding behaviour at the highest concentration tested,NOPr [3]; 400 nM,saturable binding with minimal nonspecific binding
same,Kd,"NOPr [3]; 2 h, 37 °C, n = 3, read-out: saturation KD (converted)",19.1 nM
same,Kd,"NOPr [3]; 2 h, 37 °C, n = 3, read-out: saturation pKD (converted)",19.1 nM
same,selectivity over the other opioid receptors,"NOPr [3]; NOPr vs MOPr, DOPr, KOPr",> 100 fold
same,Kd,"NOPr [3]; Table 3, equilibrium saturation binding, read-out: KD NOPr (converted)",19.1 nM
same,Kd,"NOPr [3]; Table 3, equilibrium saturation binding, read-out: pKD ± SEM NOPr (converted)",19.1 nM
CC(C)C1CCC(N2CCC3(CC2)C(=O)N(CCNS(N)(=O)=O)Cc2ccccc23)CC1 (centres unmarked) [AT-121],Ki,"NOPr [4]; read-out: 13h K i ± SEM, tracer 13h (5 nM; 25 nM elsewhere in the source)",11 ± 10 nM
same,Ki,"NOPr [4]; tracer 13g (20 nM; 5 nM elsewhere in the source), read-out: 13g K i ± SEM",17 ± 3 nM
"O=C(NCCCN1CCC2(CC1)OCc1ccccc12)[C@H]1CCCN1Cc1ccccc1 [C24, (2R)-1-(phenylmethyl)-N-(3-spiro[1H-2-benzofuran-3,4′-piperidine]-1′-ylpropyl)pyrrolidine-2-carboxamide]",Ki,DOPr,> 2500 nM
same,Ki,KOPr,> 2500 nM
same,IC50,NOPr [2]; [8],2.7 nM
same,IC50,NOPr [2]; [9],2.51 nM
same,Ki,"NOPr [4]; 13g K i ± SEM (nM), tracer 13g (20 nM; 5 nM elsewhere in the source)",0.06 ± 0.02 nM
same,Ki,"NOPr [4]; 13h K i ± SEM (nM), tracer 13h (5 nM; 25 nM elsewhere in the source)",0.09 ± 0.0008 nM
same,Ki,MOPr,> 2500 nM
same,Ki,NOPr [5],0.24 nM
"Cc1cccc2c1CC[C@H](CN1CCC(c3c(Cl)cccc3Cl)CC1)C[C@@H]2O [SB-612111, (−)-cis-1-Methyl-7-[[4-(2,6-dichlorophenyl)piperidin-1-yl]methyl]-6,7,8,9-tetrahydro-5 H-benzocyclohepten-5-ol]",pKB GTPγ[35S],NOPr [6],[…]
same,Ki,CHOhNOPr,0.16 nM
same,pKi ± SEM CHOhNOPr,CHOhNOPr,9.80 ± 0.08
same,Ki,CHOhMOPr,< 1000 nM
same,pKi CHOhMOPr,CHOhMOPr,< 6.0
same,Ki,CHOhDOPr,< 5000 nM
same,pKi CHOhDOPr,CHOhDOPr,< 5.3
same,Ki,CHOhKOPr,< 1000 nM
same,pKi CHOhKOPr,CHOhKOPr,< 6.0
same,"change in apparent affinity (K i), Na+ and Gpp(NH)p vs NMDG condition",NOPr [7],~1.3 fold
"N/OFQ: endogenous 17-amino acid neuropeptide agonist nociceptin/orphanin FQ, full NOPr agonist",Ki,NOPr [5],0.08 ± 0.03 nM
